Laboratory results reported in PubChem BioAssay AID248 (DTP/NCI, 2004).
Values joined by “and” are separate entries in the source; they are usually repeats but may differ in a detail not shown here. Identical values can stand only once. Inconclusive results and toxic doses are left out. No stated cut-off is given here; in the data, active means T/C of 150% or more; inactive means T/C below 125%.

System: L1210 leukemia ip in BDF1 mice, survival T/C
Experiment: NCI In Vivo Anticancer Drug Screen. Data for tumor model L1210 Leukemia (intraperitoneal) in B6D2F1 (BDF1) mice
Settings: endpoint: mean survival time, higher = longer survival
Procedure, shortened: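 Tumor cells were implanted, animals were treated, and survival was followed. The result divides the treated measurement by the vehicle-control measurement.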

[1] = dose: 50.0 mg/kg/injection, schedule: Q01DX001 (ip), vehicle: saline
[2] = dose: 100.0 mg/kg/injection, schedule: Q01DX001 (ip), vehicle: saline
[3] = dose: 200.0 mg/kg/injection, schedule: Q01DX001 (ip), vehicle: saline
[4] = dose: 400.0 mg/kg/injection, schedule: Q01DX001 (ip), vehicle: saline
[5] = dose: 100.0 mg/kg/injection, schedule: Q01DX001 (ip), vehicle: Klucel (hydroxypropylcellulose) (HPC)
[6] = dose: 200.0 mg/kg/injection, schedule: Q01DX001 (ip), vehicle: Klucel (hydroxypropylcellulose) (HPC)
[7] = dose: 400.0 mg/kg/injection, schedule: Q01DX001 (ip), vehicle: Klucel (hydroxypropylcellulose) (HPC)
[8] = dose: 100.0 mg/kg/injection, schedule: Q04DX003 (ip), vehicle: saline
[9] = dose: 100.0 mg/kg/injection, schedule: Q04DX003 (ip), vehicle: saline with Tween-80
[10] = dose: 200.0 mg/kg/injection, schedule: Q04DX003 (ip), vehicle: saline with Tween-80
[11] = dose: 400.0 mg/kg/injection, schedule: Q04DX003 (ip), vehicle: saline with Tween-80
[12] = dose: 100.0 mg/kg/injection, schedule: Q01DX009 (ip), vehicle: Klucel (hydroxypropylcellulose) (HPC)
[13] = dose: 100.0 mg/kg/injection, schedule: Q04DX003 (ip), vehicle: Klucel (hydroxypropylcellulose) (HPC)
[14] = dose: 200.0 mg/kg/injection, schedule: Q01DX009 (ip), vehicle: Klucel (hydroxypropylcellulose) (HPC)
[15] = dose: 200.0 mg/kg/injection, schedule: Q04DX003 (ip), vehicle: Klucel (hydroxypropylcellulose) (HPC)
[16] = dose: 400.0 mg/kg/injection, schedule: Q01DX009 (ip), vehicle: Klucel (hydroxypropylcellulose) (HPC)
[17] = dose: 400.0 mg/kg/injection, schedule: Q04DX003 (ip), vehicle: Klucel (hydroxypropylcellulose) (HPC)
[18] = dose: 100.0 mg/kg/injection, schedule: Q01DX009 (ip), vehicle: saline with Tween-80
[19] = dose: 200.0 mg/kg/injection, schedule: Q01DX009 (ip), vehicle: saline with Tween-80

Measured: T/C

CC(=O)C(C)CCOC1(C)OCCC1C (stereo not given)
inactive: [1] 103 % of control | [2] 116 % of control | [3] 100 % of control | [4] 103 % of control

COc1ccc2c(c1)CCC1C2CCC2(C)C(=O)C(SC3=NC=NC4=NC=NC43)CC12 (stereo not given)
inactive: dose: 100.0 mg/kg/injection, schedule: Q01DX001 (sc), vehicle: steriod suspending solution 97 % of control | dose: 200.0 mg/kg/injection, schedule: Q01DX001 (sc), vehicle: steriod suspending solution 96 % of control | dose: 400.0 mg/kg/injection, schedule: Q01DX001 (sc), vehicle: steriod suspending solution 111 % of control

CCOC(=O)c1cnc(N)s1
inactive: [5] 105 % of control | [6] 98 % of control | [7] 102 % of control

O=[N+]([O-])c1ccc(Oc2ccccc2)c(Cl)c1
inactive: dose: 75.0 mg/kg/injection, schedule: Q01DX009 (ip), vehicle: Klucel (hydroxypropylcellulose) (HPC) 101 % of control | dose: 75.0 mg/kg/injection, schedule: Q04DX003 (ip), vehicle: Klucel (hydroxypropylcellulose) (HPC) 96 % of control | dose: 150.0 mg/kg/injection, schedule: Q01DX009 (ip), vehicle: Klucel (hydroxypropylcellulose) (HPC) 108 % of control | dose: 150.0 mg/kg/injection, schedule: Q04DX003 (ip), vehicle: Klucel (hydroxypropylcellulose) (HPC) 110 % of control | dose: 300.0 mg/kg/injection, schedule: Q01DX009 (ip), vehicle: Klucel (hydroxypropylcellulose) (HPC) 108 % of control | dose: 300.0 mg/kg/injection, schedule: Q04DX003 (ip), vehicle: Klucel (hydroxypropylcellulose) (HPC) 93 % of control

CC1(C)SCC(C(=O)N2CCCC2C(=O)OC2CCCCC2)N1C=O (stereo not given)
inactive: [8] 92 % of control | dose: 400.0 mg/kg/injection, schedule: Q04DX003 (ip), vehicle: saline 97 % of control

CC1CC(C)(C)N=C(C(Cc2ccc(Br)cc2)c2ccccc2)O1 (stereo not given)
inactive: [9] 97 % of control | [10] 92 % of control | [11] 95 % of control

CCCCCCCCCCCCOS(=O)(=O)O
inactive: [2] 98 % of control | [3] 95 % of control | [4] 98 % of control

CCN1CCN2C(=O)OCC2C1 (stereo not given)
inactive: dose: 100.0 mg/kg/injection, schedule: Q04DX003 (sc), vehicle: olive oil, sesame oil, peanut oil 94 % of control | dose: 200.0 mg/kg/injection, schedule: Q04DX003 (sc), vehicle: olive oil, sesame oil, peanut oil 97 % of control | dose: 400.0 mg/kg/injection, schedule: Q04DX003 (sc), vehicle: olive oil, sesame oil, peanut oil 92 % of control

Cc1ccc(NC(=O)c2ccc(Cl)cc2)cc1
inactive: [12] 95 % of control | [13] 97 % of control | [14] 99 % of control | [15] 103 % of control | [16] 90 % of control | [17] 103 % of control

COc1c2ccoc2cc2oc(C)cc(=O)c12
inactive: dose: 37.5 mg/kg/injection, schedule: Q01DX001 (ip), vehicle: carboxymethylcellulose (CMC) 103 % of control | dose: 75.0 mg/kg/injection, schedule: Q01DX001 (ip), vehicle: carboxymethylcellulose (CMC) 100 % of control | dose: 150.0 mg/kg/injection, schedule: Q01DX001 (ip), vehicle: carboxymethylcellulose (CMC) 108 % of control

S=C(Nc1cccc2ccccc12)N1CCOCC1
inactive: [12] 94 % of control | [14] 120 % of control | [16] 96 % of control

CC1(ON(c2cc(Cl)cc(Cl)c2)C2(C)c3ccccc3-c3ccccc32)c2ccccc2-c2ccccc21
inactive: [9] 88 % of control | [10] 97 % of control

COc1cc2c(cc1O)C(CCc1cc(OC)c(OC)c(OC)c1)=NCC2
inactive: dose: 50.0 mg/kg/injection, schedule: Q04DX002 (ip), vehicle: saline 101 % of control | dose: 100.0 mg/kg/injection, schedule: Q04DX002 (ip), vehicle: saline 104 % of control | dose: 200.0 mg/kg/injection, schedule: Q04DX002 (ip), vehicle: saline 104 % of control

Cc1cccc(OS(C)(=O)=O)c1N(S(C)(=O)=O)S(C)(=O)=O
inactive: dose: 50.0 mg/kg/injection, schedule: Q01DX001 (ip), vehicle: Klucel (hydroxypropylcellulose) (HPC) 97 % of control | [5] 108 % of control | [6] 95 % of control | [7] 95 % of control

CS(=O)(=O)OCCN(Cc1ccc(OS(C)(=O)=O)cc1)S(C)(=O)=O
inactive: [18] 91 % of control | [9] 109 % of control | [19] 93 % of control | [10] 95 % of control | [11] 109 % of control

CCOC(=O)c1ccc(F)cc1
inactive: dose: 100.0 mg/kg/injection, schedule: Q04DX002 (ip), vehicle: saline with Tween-80 101 % of control | dose: 200.0 mg/kg/injection, schedule: Q04DX002 (ip), vehicle: saline with Tween-80 115 % of control | dose: 400.0 mg/kg/injection, schedule: Q04DX002 (ip), vehicle: saline with Tween-80 104 % of control

O=C([O-])c1ccccc1[I+]c1ccc(C2CCCCC2)cc1
inactive: [1] 100 % of control | [2] 100 % of control | [3] 105 % of control | [4] 103 % of control

NC(=O)/C(=C\c1ccc(N=Nc2ccc(/C=C(\C(N)=O)c3cccc4ccccc34)cc2)cc1)c1cccc2ccccc12
inactive: [13] 93 % of control | [15] 99 % of control | [17] 89 % of control

C=CC[N+](C)([O-])c1ccc(C(=O)OC)cc1 (stereo not given)
inactive: [2] 107 % of control | [3] 102 % of control | [4] 96 % of control

NC(=O)NC1CC1c1ccccc1 (stereo not given)
inactive: [2] 101 % of control | [3] 95 % of control | [4] 120 % of control

O=C(O)C(O)C(O)C(O)C(O)CO.O=C(O)C(O)C(O)C(O)C(O)CO.O=C(O)C(O)C(O)C(O)C(O)CO.[Ga] (stereo not given)
inactive: [1] 101 % of control | [2] 103 % of control | [3] 112 % of control | [4] 100 % of control

CCN(CC)CCN1CC(=O)Nc2cc(Cl)ccc21
inactive: dose: 25.0 mg/kg/injection, schedule: Q04DX003 (ip), vehicle: saline 94 % of control | dose: 50.0 mg/kg/injection, schedule: Q04DX003 (ip), vehicle: saline 99 % of control | [8] 98 % of control and 87 % of control

O=C(CCN1C(=O)CCC1=O)NCCc1ccccc1
inactive: [18] 97 % of control | [19] 98 % of control | dose: 400.0 mg/kg/injection, schedule: Q01DX009 (ip), vehicle: saline with Tween-80 101 % of control

CN(C)C(=S)Oc1cc(Cl)c(Cl)cc1Cl
inactive: [13] 96 % of control | [15] 95 % of control | [17] 90 % of control

CNC(=O)Oc1cc2ccccc2cc1C(=O)Nc1ccccc1
inactive: dose: 100.0 mg/kg/injection, schedule: Q04DX002 (ip), vehicle: Klucel (hydroxypropylcellulose) (HPC) 97 % of control | dose: 200.0 mg/kg/injection, schedule: Q04DX002 (ip), vehicle: Klucel (hydroxypropylcellulose) (HPC) 100 % of control | dose: 400.0 mg/kg/injection, schedule: Q04DX002 (ip), vehicle: Klucel (hydroxypropylcellulose) (HPC) 113 % of control

COc1ccc(/C=C(\CCCOC(C)=O)[N+](=O)[O-])cc1OC
inactive: dose: 100.0 mg/kg/injection, schedule: Q01DX001 (ip), vehicle: carboxymethylcellulose (CMC) 104 % of control | dose: 200.0 mg/kg/injection, schedule: Q01DX001 (ip), vehicle: carboxymethylcellulose (CMC) 101 % of control

CC(=O)c1ccc(OCc2ccccc2)cc1OCC(O)CN1CCN(c2ccc(C)c(C)c2)CC1 (stereo not given)
inactive: [9] 97 % of control | [10] 95 % of control | [11] 92 % of control
